Laboratory results reported in US10800753B2, “Tetrahydrothiophene-based GABA aminotransferase inactivators and analogs thereof for treating neurological disorders” (Northwestern University, priority 2015, dated 2020).

What was measured:
[1] = target: GABA aminotransferase (GABA-AT) (Sus scrofa (Pig), UniProt P80147); assay: Inhibition of GABA-AT, coupled assay with SSDH (IC50 to Ki by Cheng-Prusoff); format: biochemical; conditions: competitive inhibitor of GABA-AT
Method: GABA-AT was isolated and purified from pig brain by a published procedure.
Inhibition constants were determined by monitoring GABA-AT activity in the presence of 0-50 mM concentrations of synthesized analogues using a coupled assay with the enzyme succinic semialdehyde dehydrogenase (SSDH). The assay solution consisted of 10 mM GABA, 5 mM α ketoglutarate, 1 mM NADP^+, 5 mM β-mercaptoethanol, and excess SSDH in 50 mM potassium pyrophosphate buffer, pH 8.5. Enzyme activity was determined by observing the change in absorbance at 340 nm at 25° C. IC50 values were obtained using non-linear regression in GraphPad Prism5 software. […] (Yung-Chi, C.; Prusoff, W. H. Biochem. Pharmacol. 1973, 22, 3099-3108.)

[2] = system: GABA-AT; conditions: cited from earlier work
[3] = system: aspartate aminotransferase; conditions: off-target enzyme, prior art; cited from earlier work
[4] = system: multiple-hit rat model of infantile spasms; conditions: cited from earlier work
[5] = target: CYP2C8 (Homo sapiens (Human), UniProt P10632); assay: Inhibition of microsomal cytochromes P450: CYP2C8; format: in vitro ADME; conditions: HLM, paclitaxel substrate, 10 μM, 10 min at 37° C.
Sequence of CYP2C8 (P10632 whole entry): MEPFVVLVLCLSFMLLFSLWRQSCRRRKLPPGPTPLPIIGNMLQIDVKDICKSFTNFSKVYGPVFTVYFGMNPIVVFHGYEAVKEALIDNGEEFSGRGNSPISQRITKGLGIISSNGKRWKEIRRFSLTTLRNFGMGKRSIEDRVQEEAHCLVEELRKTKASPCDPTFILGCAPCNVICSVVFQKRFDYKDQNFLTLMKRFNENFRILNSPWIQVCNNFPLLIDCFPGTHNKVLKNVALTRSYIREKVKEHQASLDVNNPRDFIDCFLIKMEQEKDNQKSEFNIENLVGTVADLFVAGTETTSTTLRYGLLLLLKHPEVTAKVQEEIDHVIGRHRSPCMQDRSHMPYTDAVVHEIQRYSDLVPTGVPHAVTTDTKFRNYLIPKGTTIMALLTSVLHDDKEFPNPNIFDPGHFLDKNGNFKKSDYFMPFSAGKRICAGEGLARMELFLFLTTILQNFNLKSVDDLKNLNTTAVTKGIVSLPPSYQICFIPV
Method: (§1) Inhibition of Microsomal Cytochromes P450. The experiments were performed by Eurofins Panlabs (Redmond, Wash. 98052, USA). CYP1A inhibition (HLM, phenacetin substrate), CYP2B6 inhibition (HLM, bupropion substrate), CYP2C8 inhibition (HLM, paclitaxel substrate), CYP2C9 inhibition (HLM, diclofenac substrate), CYP2C19 inhibition (HLM, omeprazole substrate), CYP2D6 inhibition (HLM, dextromethorphan substrate), and CYP3A inhibition (HLM, midazolam and testosterone substrates) were tested. The test concentration was 10 μM. The incubation time was 10 min at 37° C. The detection method was by HPLC-MS/MS. The experiments were duplicated, and the % inhibition of the control values was averaged (FIG. 10).

[6] = system: CYP3A; assay: Inhibition of microsomal cytochromes P450: CYP3A; format: in vitro ADME, human; conditions: HLM, midazolam and testosterone substrates, 10 μM, 10 min at 37° C.
Method: as §1

[7] = target: CYP2B6 (Homo sapiens (Human), UniProt P20813); assay: Inhibition of microsomal cytochromes P450: CYP2B6; format: in vitro ADME; conditions: HLM, bupropion substrate, 10 μM, 10 min at 37° C.
Sequence of CYP2B6 (P20813 whole entry): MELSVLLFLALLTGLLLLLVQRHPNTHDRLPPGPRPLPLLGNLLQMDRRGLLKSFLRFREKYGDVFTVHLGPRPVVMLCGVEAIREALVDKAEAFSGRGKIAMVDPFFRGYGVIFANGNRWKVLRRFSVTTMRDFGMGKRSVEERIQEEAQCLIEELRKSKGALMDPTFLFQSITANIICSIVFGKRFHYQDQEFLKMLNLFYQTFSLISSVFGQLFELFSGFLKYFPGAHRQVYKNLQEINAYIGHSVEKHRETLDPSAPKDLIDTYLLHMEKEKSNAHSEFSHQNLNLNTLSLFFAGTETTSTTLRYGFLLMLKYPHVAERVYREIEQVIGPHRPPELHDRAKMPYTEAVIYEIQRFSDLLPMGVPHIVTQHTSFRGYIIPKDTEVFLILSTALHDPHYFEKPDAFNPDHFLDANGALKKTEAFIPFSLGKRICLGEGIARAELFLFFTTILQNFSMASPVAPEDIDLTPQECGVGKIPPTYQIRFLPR
Method: as §1

[8] = target: CYP2D6 (Homo sapiens (Human), UniProt P10635); assay: Inhibition of microsomal cytochromes P450: CYP2D6; format: in vitro ADME; conditions: HLM, dextromethorphan substrate, 10 μM, 10 min at 37° C.
Sequence of CYP2D6 (P10635 whole entry): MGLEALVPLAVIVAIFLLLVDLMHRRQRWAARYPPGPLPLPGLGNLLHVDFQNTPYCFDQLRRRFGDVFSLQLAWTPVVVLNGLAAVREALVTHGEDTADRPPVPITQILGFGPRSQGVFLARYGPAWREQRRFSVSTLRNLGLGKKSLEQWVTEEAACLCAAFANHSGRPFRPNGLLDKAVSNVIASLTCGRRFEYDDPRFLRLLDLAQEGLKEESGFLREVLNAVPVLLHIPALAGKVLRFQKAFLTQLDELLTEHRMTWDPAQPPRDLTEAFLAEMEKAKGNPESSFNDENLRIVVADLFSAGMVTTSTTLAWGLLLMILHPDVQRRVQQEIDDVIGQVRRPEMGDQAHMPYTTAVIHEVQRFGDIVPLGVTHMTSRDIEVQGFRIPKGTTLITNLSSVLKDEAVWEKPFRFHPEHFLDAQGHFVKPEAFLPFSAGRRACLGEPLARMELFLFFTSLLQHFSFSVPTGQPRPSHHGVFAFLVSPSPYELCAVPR
Method: as §1

[9] = Metabolic stability in human liver microsomes; format: in vitro ADME; conditions: over 60 minutes, 0.1 μM, 37° C., LC-MS/MS
Method: Measurement of the metabolic stability in HLM was accomplished by incubating 17 with the microsomes and monitoring its disappearance with time using LC-MS/MS. Imipramine, propranolol, terfenadine, and verapamil were run in similar condition as controls. […] Metabolic Stability in Human Liver Microsomes. The experiments were performed by Eurofins Panlabs (Redmond, Wash. 98052, USA). The test concentration of 17 was 0.1 μM. […] The detection method was by LC-MS/MS. Imipramine, propranolol, terfenadine, and verapamil were run in similar condition as controls.

[10] = target: CYP2C19 (Homo sapiens (Human), UniProt P33261); assay: Inhibition of microsomal cytochromes P450: CYP2C19; format: in vitro ADME; conditions: HLM, omeprazole substrate, 10 μM, 10 min at 37° C.
Sequence of CYP2C19 (P33261 whole entry): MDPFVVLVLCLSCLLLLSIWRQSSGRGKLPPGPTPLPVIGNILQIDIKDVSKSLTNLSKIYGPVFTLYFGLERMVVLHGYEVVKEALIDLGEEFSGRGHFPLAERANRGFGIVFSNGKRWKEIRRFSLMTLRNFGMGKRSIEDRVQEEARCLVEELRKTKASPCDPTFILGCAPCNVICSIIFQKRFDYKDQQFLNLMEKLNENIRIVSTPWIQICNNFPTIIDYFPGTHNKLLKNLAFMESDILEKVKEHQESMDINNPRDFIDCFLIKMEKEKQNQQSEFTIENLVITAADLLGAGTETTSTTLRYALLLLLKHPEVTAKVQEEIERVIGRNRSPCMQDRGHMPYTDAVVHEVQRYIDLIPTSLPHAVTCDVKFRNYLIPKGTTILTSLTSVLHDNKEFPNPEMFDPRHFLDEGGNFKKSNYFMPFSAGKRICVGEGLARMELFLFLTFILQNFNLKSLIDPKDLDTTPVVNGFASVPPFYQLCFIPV
Method: as §1

[11] = system: CYP1A; assay: Inhibition of microsomal cytochromes P450: CYP1A; format: in vitro ADME, human; conditions: HLM, phenacetin substrate, 10 μM, 10 min at 37° C.
Method: as §1

[12] = target: CYP2C9 (Homo sapiens (Human), UniProt P11712); assay: Inhibition of microsomal cytochromes P450: CYP2C9; format: in vitro ADME; conditions: HLM, diclofenac substrate, 10 μM, 10 min at 37° C.
Sequence of CYP2C9 (P11712 whole entry): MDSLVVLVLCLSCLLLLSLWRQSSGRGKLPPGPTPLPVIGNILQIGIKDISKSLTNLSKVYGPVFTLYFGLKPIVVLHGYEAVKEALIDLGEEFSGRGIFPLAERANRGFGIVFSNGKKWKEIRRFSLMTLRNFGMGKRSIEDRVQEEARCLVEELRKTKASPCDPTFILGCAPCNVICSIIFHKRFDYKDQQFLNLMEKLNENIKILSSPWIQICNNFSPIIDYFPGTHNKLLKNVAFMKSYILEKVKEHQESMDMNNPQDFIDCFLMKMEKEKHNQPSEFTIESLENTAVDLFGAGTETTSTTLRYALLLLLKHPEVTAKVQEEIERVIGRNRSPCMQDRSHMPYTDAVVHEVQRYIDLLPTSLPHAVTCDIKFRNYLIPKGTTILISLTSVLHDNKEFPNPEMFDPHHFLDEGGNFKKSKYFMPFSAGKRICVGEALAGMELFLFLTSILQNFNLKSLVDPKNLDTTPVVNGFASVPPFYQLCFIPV
Method: as §1

[13] = target: hERG channel (Homo sapiens (Human), UniProt Q12809); assay: Inhibition of the hERG channel, automated whole-cell patch clamp; format: cell-based; conditions: hERG CHO-K1 cell line; 0.1 μM, 1 μM, 10 μM; 5 min at room temperature
Sequence of hERG channel (Q12809 whole entry): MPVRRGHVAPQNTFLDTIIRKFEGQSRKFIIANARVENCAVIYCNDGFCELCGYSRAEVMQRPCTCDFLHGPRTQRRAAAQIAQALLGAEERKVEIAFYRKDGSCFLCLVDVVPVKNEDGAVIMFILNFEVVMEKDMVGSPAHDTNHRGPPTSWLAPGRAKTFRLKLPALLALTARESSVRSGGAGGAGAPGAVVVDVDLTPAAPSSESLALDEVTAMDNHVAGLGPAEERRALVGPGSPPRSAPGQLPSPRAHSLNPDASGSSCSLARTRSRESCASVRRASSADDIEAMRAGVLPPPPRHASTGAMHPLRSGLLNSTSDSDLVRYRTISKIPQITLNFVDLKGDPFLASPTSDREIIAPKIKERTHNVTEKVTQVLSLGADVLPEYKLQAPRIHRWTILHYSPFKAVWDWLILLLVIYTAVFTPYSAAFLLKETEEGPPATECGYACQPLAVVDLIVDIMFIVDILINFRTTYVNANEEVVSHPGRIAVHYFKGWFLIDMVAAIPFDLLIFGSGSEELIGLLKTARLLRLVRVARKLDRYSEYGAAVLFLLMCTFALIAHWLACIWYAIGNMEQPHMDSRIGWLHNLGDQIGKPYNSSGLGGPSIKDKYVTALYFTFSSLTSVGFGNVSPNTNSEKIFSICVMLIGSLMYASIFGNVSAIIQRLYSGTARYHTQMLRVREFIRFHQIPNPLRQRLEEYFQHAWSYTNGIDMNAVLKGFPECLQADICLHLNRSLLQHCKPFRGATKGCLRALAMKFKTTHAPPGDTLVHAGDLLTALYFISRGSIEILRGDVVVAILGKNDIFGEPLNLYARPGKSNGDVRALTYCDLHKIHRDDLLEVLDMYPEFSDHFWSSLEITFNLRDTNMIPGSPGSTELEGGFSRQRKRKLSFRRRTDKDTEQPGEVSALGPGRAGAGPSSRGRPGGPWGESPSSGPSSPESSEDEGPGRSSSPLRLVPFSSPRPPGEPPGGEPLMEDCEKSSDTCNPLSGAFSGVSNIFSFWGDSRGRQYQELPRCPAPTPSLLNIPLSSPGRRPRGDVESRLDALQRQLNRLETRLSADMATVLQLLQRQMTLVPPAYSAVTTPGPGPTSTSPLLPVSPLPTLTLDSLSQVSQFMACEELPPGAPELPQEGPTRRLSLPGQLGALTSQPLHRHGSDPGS
Method: Inhibition of the hERG Channel. The experiments were performed by Eurofins Panlabs (Redmond, Wash. 98052, USA). hERG CHO-K1 cell line was used. The test concentrations were 0.1 μM, 1 μM, and 10 μM. The incubation time was 5 min at room temperature, cumulatively. The detection method used an automated whole-cell patch clamp. The experiments were duplicated, and the % inhibition of the tail current was averaged (FIG. 9).

Sequence of GABA aminotransferase (GABA-AT) (P80147 29-500): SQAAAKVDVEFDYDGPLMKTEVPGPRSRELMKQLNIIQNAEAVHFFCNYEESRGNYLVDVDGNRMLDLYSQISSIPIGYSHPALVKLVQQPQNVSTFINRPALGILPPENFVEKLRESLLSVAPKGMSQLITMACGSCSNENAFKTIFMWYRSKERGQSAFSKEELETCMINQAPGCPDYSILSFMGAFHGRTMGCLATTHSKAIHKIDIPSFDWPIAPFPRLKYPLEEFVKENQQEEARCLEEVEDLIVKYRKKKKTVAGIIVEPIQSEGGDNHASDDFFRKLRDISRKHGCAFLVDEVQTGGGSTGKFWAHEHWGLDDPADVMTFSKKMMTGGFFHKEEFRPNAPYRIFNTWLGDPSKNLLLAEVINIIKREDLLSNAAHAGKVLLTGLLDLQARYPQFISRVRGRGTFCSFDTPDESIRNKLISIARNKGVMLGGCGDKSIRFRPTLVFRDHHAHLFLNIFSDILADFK

(2S,4S)-4-aminotetrahydrofuran-2-carboxylic acid (40) and (2R,4R)-4-aminotetrahydrofuran-2-carboxylic acid (51) [mixture of enantiomers 40 and 51]
Ki [1]: 430 µM

N[C@H]1C=C(C(=O)O)SC1 [(S)-4-Amino-4,5-dihydro-2-thiophenecarboxylic acid]
inactivation of GABA-AT (in words, prior art) [2]: known inactivator of GABA-AT | inactivation or inhibition of aspartate aminotransferase [3]: inactivator of aspartate aminotransferase

C=CC(N)CCC(=O)O (stereo not shown) [vigabatrin]
time spasms suppression stayed effective [4]: 1 days

Cl.N[C@@H]1CS[C@H](C(=O)O)C1 [Compound 17, (2S,4S)-4-Aminotetrahydrothiophene-2-carboxylic acid hydrochloride]
CYP2C8 inhibition [5]: did not inhibit or induce | CYP3A inhibition [6]: did not inhibit or induce | CYP2B6 inhibition [7]: did not inhibit or induce | CYP2D6 inhibition [8]: did not inhibit or induce | metabolized in HLM [9]: less than 20% | CYP2C19 inhibition [10]: did not inhibit or induce | CYP1A inhibition [11]: did not inhibit or induce | CYP2C9 inhibition [12]: did not inhibit or induce | inhibition of the hERG channel (tail current) [13]: did not inhibit
